Like-named read-outs stand apart in the source and are kept apart here.
Key:
[1] = test system: MDA-MB-231 PTX paclitaxel resistant; assay: p-histone H3 fluorescence-based cell imaging assay; design: species or system human; conditions: for EC50: MDA-MB-231-PTX*, Breast, P-gp+, read-out: Cellular EC50; for IC50: MDA-MB-231 PTX paclitaxel resistant, P-gp +
Experimental: (§1) All high-content cell assays were performed on an ArrayScan VTi HCS Reader (Cellomics). Tumor cell lines were treated with AMG 900, AZD1152, MK-0457, or PHA-739358 (concentration range varied based on potency). The cells were prepared for intracellular staining with an anti-p-histone H3 Ser^10 antibody as previously described (1). Detection was performed with an anti-rabbit IgG-alexa-568 antibody and DAPI. The cellular levels of p-histone H3 were analyzed using Target Activation V2 algorithm (Cellomics) to determine the percentage of positive cells. For the imaging assays, the concentration-response curves and corresponding IC50 and EC50 values were calculated using the percentage of cells affected versus the DMSO control.

MDA-MB-231 parental = assay: p-histone H3 fluorescence-based cell imaging assay; design: species or system human; conditions: P-gp −
Experimental: as §1

MES-SA parental = assay: p-histone H3 fluorescence-based cell imaging assay; design: species or system human; conditions: P-gp −
Experimental: as §1

[2] = test system: MES-SA-Dx5 doxorubicin resistant; assay: p-histone H3 fluorescence-based cell imaging assay; design: species or system human; conditions: for EC50: MES-SA Dx5*, Uterine, P-gp+, read-out: Cellular EC50; for IC50: MES-SA-Dx5 doxorubicin resistant, P-gp +
Experimental: as §1

[3] = test system: NCI-H460 PTX paclitaxel resistant; assay: p-histone H3 fluorescence-based cell imaging assay; design: species or system human; conditions: for EC50: NCI-H460-PTX*, Lung, P-gp+, read-out: Cellular EC50; for IC50: NCI-H460 PTX paclitaxel resistant, P-gp +
Experimental: as §1

NCI-H460 parental = assay: p-histone H3 fluorescence-based cell imaging assay; design: species or system human; conditions: P-gp −
Experimental: as §1

RPMI8226 = assay: ≧4N DNA content assay (flow cytometry); type: cell-based, human
Experimental: (§2) Tumor cells were treated with AMG 900, AZD1152, MK-0457, or PHA-739358 (range concentration varied based on potency) for 24 hours and processed for cell-cycle analysis (DNA staining only) as previously described (1). Cells were analyzed on a LSRII flow cytometer using BD FACS Diva software. The concentration-response curves and corresponding EC50 values were calculated using the percentage of cells with ≧4N DNA content versus the DMSO control.

U226-B1 = assay: ≧4N DNA content assay (flow cytometry); type: cell-based, human; conditions: U226-B1, BCRP −, 24 hours
Experimental: as §2

HCT15 = assay: Cellular EC50, additional cell lines (Table 6-B); type: cell-based, human; conditions: P-gp+
Experimental: as §1, §2

MCF-7 = assay: Cellular EC50, additional cell lines (Table 6-B); type: cell-based, human; conditions: MCF-7, Breast
Experimental: as §1, §2

769P = assay: Cellular EC50, additional cell lines (Table 6-B); type: cell-based; conditions: Homo sapiens, Kidney, P-gp+
Experimental: as §1, §2

SNU499 = assay: Cellular EC50, additional cell lines (Table 6-B); type: cell-based; conditions: Homo sapiens, Liver, P-gp+
Experimental: as §1, §2

HCT116 parental = assay: ≧4N DNA content assay (FIG. 6-A); type: cell-based; conditions: Homo sapiens, HCT-116, 24 hours, read-out: cellular ≧4N DNA content EC50
Experimental: as §2
(§3) HCT116 cell lines were treated with increasing concentrations of AMG 900 or AZD1152 for 24 hours. Flow cytometry was used to assess the accumulation of cells with ≧4N DNA content expressed as a percentage of the DMSO-treated control (POC). The concentration-response curves and calculated EC50 values were determined from two independent experiments (bars, ±SD).

HCT116 AZD1152-resistant [4] = assay: ≧4N DNA content assay (FIG. 6-A); type: cell-based; conditions: Homo sapiens, HCT-116; HCT116 AZD1152-resistant subline; 24 hours; read-out: cellular ≧4N DNA content EC50
Experimental: Tumor cell lines were obtained from the American Type Culture Collection (ATCC) unless otherwise specified. The MDA-MB-231-PTX and NCI-H460-PTX cell lines were established by growing the cells in the presence of increasing concentrations of paclitaxel over a period of 6 months. The HCT116 AZD1152-resistant cell line was established by growing the cells in the presence of AZD1152 at 80 nmol/L.
as §2, §3

HCT116 AZD1152-resistant [5] = assay: Colony formation assay (FIG. 6-B); type: cell-based, human; conditions: HCT116 variant subline, at 50 nmol/L
Experimental: Tumor cell lines were obtained from the American Type Culture Collection (ATCC) unless otherwise specified. The MDA-MB-231-PTX and NCI-H460-PTX cell lines were established by growing the cells in the presence of increasing concentrations of paclitaxel over a period of 6 months. The HCT116 AZD1152-resistant cell line was established by growing the cells in the presence of AZD1152 at 80 nmol/L. Tumor cells were treated with AMG 900, paclitaxel or AZD1152 (0.5, 5, 50 nmol/L) for 48 hours, washed twice with complete media, and cells were re-plated at a density of 5000 cells per well in drug-free complete media. Cells were grown until the DMSO control wells were confluent. Cells were stained with crystal violet dye (Sigma), washed with distilled water, and imaged using a digital scanner (Hewlett-Packard). Colony formation assay was performed with HCT116 cell lines (parental and AZD1152-resistant). Cells were treated with DMSO, AMG 900, AZD1152, or paclitaxel at the indicated concentrations for 48 hours and re-plated in complete media lacking the inhibitor. After the DMSO-treated cells reached confluence, the cells were stained with crystal violet and imaged (duplicate wells).

[6] = Homo sapiens, RPMI-8226, RPMI8226, BCRP +, 24 hours, read-out: ≧4N DNA Content assay, EC50 value
[7] = Homo sapiens, RPMI-8226**, Multiple Myeloma, P-gp− and/or BCRP+, read-out: Cellular EC50

## CCN(CCCOc1ccc2c(Nc3cc(CC(=O)Nc4cccc(F)c4)n[nH]3)ncnc2c1)CCOP(=O)(O)O [AZD1152]
[1]; Homo sapiens
  EC50: > 500 nM
  IC50: > 500 nM
MDA-MB-231 parental; Homo sapiens
  IC50: 16 nM
MES-SA parental; Homo sapiens
  IC50: 51 nM
[2]; Homo sapiens
  EC50: > 500 nM
  IC50: > 500 nM
[3]; Homo sapiens
  EC50: > 500 nM
  IC50: > 500 nM
NCI-H460 parental; Homo sapiens
  IC50: 131 nM
RPMI8226; [6]
  EC50: 865 nM
RPMI8226; [7]
  EC50: 865 nM
U226-B1; Homo sapiens
  EC50: 12 nM
HCT15; Homo sapiens, HCT-15, Colon
  EC50: > 625 nM
MCF-7; Homo sapiens, MCF7
  EC50: 11 nM
769P
  EC50: 703 nM
SNU499
  EC50: > 1250 nM
HCT116 parental
  EC50: 34 nM
HCT116 AZD1152-resistant [4]
  EC50: 672 nM
HCT116 AZD1152-resistant [5]
  sensitivity in colony formation: insensitive

## Cc1cc(Nc2cc(N3CCN(C)CC3)nc(Sc3ccc(NC(=O)C4CC4)cc3)n2)n[nH]1 [MK-0457]
[1]
  EC50: 277 nM
  IC50: 277 nM
MDA-MB-231 parental
  IC50: 43 nM
MES-SA parental
  IC50: 51 nM
[2]
  EC50: > 1250 nM
  IC50: > 1250 nM
[3]
  EC50: 468 nM
  IC50: 468 nM
NCI-H460 parental
  IC50: 123 nM
RPMI8226; RPMI8226, BCRP +, 24 hours, read-out: ≧4N DNA Content assay, EC50 value
  EC50: 162 nM
RPMI8226; RPMI-8226**, Multiple Myeloma, P-gp− and/or BCRP+, read-out: Cellular EC50
  EC50: 162 nM
U226-B1
  EC50: 46 nM
HCT15; Colon
  EC50: 908 nM
MCF-7
  EC50: 27 nM

## CO[C@@H](C(=O)N1Cc2n[nH]c(NC(=O)c3ccc(N4CCN(C)CC4)cc3)c2C1)c1ccccc1 [PHA-739358]
[1]; Homo sapiens
  EC50: > 1250 nM
  IC50: > 1250 nM
MDA-MB-231 parental; Homo sapiens
  IC50: 49 nM
MES-SA parental; Homo sapiens
  IC50: 113 nM
[2]; Homo sapiens
  EC50: > 1250 nM
  IC50: > 1250 nM
[3]; Homo sapiens
  EC50: > 1250 nM
  IC50: > 1250 nM
NCI-H460 parental; Homo sapiens
  IC50: 510 nM
RPMI8226; [6]
  EC50: > 1250 nM
RPMI8226; [7]
  EC50: > 1250 nM
U226-B1; Homo sapiens
  EC50: 67 nM
HCT15; Homo sapiens, HCT-15, Colon
  EC50: > 1250 nM
MCF-7; Homo sapiens, MCF7
  EC50: 68 nM
769P
  EC50: > 1250 nM
SNU499
  EC50: > 1250 nM

— patent publication US20120028917A1, “Use Of N-(4-((3-(2-Amino-4-Pyrimidinyl)-2-Pyridinyl)Oxy)Phenyl)-4-(4-Methyl-2-Thienyl)-1-Phthalazinamine In The Treatment Of Antimitotic Agent Resistant Cancer” (Amgen Inc., priority 2009, published 2012)
